# In US8334316B2, “Substituted organosulfur compounds and methods of using thereof” (ACEA Biosciences, Inc., priority 2004, dated 2012):
# Where “and” joins values, the source holds several entries; their conditions need not be identical. Equal values may be shown once.
# What was measured:
# [1] = test system: ao10/17 human ovarian cancer; test: ao10/17 human ovarian cancer xenograft in nude mice (Example 4); type: in vivo; settings: for tumor inhibition rate %: vs solvent control
# Description: Only female mice were used in this study. […] The high, middle and low doses of ACEA100108 were 50, […] and 8 mg/kg/d, respectively.
# Preparation and Administration of Test Compounds. […] The high, middle and low dose of compound ACEA100108 was 50, 20 and 8 mg/kg, respectively.
# The tumor tissues were grounded in normal saline (1:6 for tumor volume to saline volume) and tumor cell suspensions were prepared in the normal saline.
# For the human ovarian cancer xenograft model, all used materials, including animal food, animal cage, supporting materials and apparatus contacted by animals, were high-pressure sterilized. Nude mice were maintained in laminar flow shelves under SPF condition. After tumor transplantation, mouse weight and tumor size in each compound dosage group were dynamically monitored and plotted. The tumor size was determined by measuring the major axis (a) and minor axis (b) of the tumor, and tumor volume was calculated according to the equation (3) in Example 3.
# [2] = test system: purified bovine brain tubulin; test: In vitro microtubule dynamics (dynamic instability) assay, video microscopy; type: biochemical
# Description: Tubulin Purification and Microtubule Dynamics Assays. Tubulin was purified, as described in the literature (“Kinetic stabilization of microtubule dynamic instability in vitro by vinblastine”, Toso, R. J., Jordan, […]., Matsumoto, B. and Wilson, L., Biochemistry, 1993, 32, 1285-1293). Briefly, microtubule-associated protein-rich bovine brain microtubule protein was prepared by three cycles of assembly and disassembly. Tubulin was purified from other microtubule proteins by elution through a Whatman P-11 phosphocellulose column equilibrated in PEM50 (50 mM Pipes, 1 mM MgSO4, 1 mM EGTA, 0.1 mM GTP). Purified tubulin (>99% pure) was drop-frozen in liquid nitrogen and stored at -70° C. […] The dynamics of individual microtubules were recorded at 37° C. using differential interference contrast enhanced video microscopy. The ends were designated as plus or minus on the basis of the growth rate, the number of microtubules that grew at opposite ends of the seeds, and the relative lengths of the microtubules (Panda, D., Goode, […]. and Wilson, L., Kinetic stabilization of microtubule dynamics at steady state by tau and microtubule-binding domains of tau, Biochemistry, 1995, 34, 11117-11127; Walker, R. A., O'Brien, […]., Voter, W. A., Erickson, H. P. and Salmon, E. D., Dynamic instability of individual microtubules analyzed by video light microscopy: rate constants and transition frequencies, J. Cell Biol. 1988, 107, 1437-1448). Plus ends were analyzed for 10 minutes per slide during the steady-state phase of polymerization ( 45 min after initiation of polymerization). Life histories of individual microtubules were collected as described by Panda et al. 1995 (Panda, D., Goode, […]. and Wilson, L., Kinetic stabilization of microtubule dynamics at steady state by tau and microtubule-binding domains of tau, Biochemistry, 1995, 34 11117-11127) with modifications. Data points were collected at 1-3 s intervals. […] Average rates, lengths and durations are the averages of independent events. The catastrophe frequency was calculated by dividing the number of shortening events by the total time of growth and attenuation tracked, and rescue frequency was calculated by dividing the number of rescue events by the total time of shortening tracked. To control for experimental error, each condition was filmed over multiple days using at least two distinct tubulin/GTP mixtures (2-3 slides each). No gross variation in microtubule dynamics was observed between mixtures or slides of a given condition. The concentration of drug used in dynamic instability assays was chosen by initially observing microtubules stabilized with half the concentration used in microtubule assembly assays.
# [3] = 20 mg/kg iv x7 qd, 7 D after transplantation
# [4] = 50 mg/kg iv x7 qd, 7 D after transplantation
# [5] = shortening events, ACEA100108 .2uM
smiles,measurement,setting,value
"Fc1ccc(CSSSCc2ccc(F)cc2)cc1 [ACEA100108, Di(p-fluorobenzyl)trisulfide]",Tumor volume (cm^3),"[1]; 8 mg/kg iv x7 qd, 7 D after transplantation",0.01 cm^3
same,Body weight of mice,"[1]; 8 mg/kg iv x7 qd, 7 d",19 ± 0.6 g
same,Body weight of mice,"[1]; 8 mg/kg iv x7 qd, 14 d",20.5 ± 1 g
same,Tumor volume (cm^3),"[1]; 8 mg/kg iv x7 qd, 14 d",0.048 ± 0.03 cm^3
same,Body weight of mice,"[1]; 8 mg/kg iv x7 qd, 21 d",21.2 ± 0.8 g
same,Tumor volume (cm^3),"[1]; 8 mg/kg iv x7 qd, 21 d",0.249 ± 0.05 cm^3
same,Tumor volume (cm^3),"[1]; 8 mg/kg iv x7 qd, 24 d",0.89 ± 0.39 cm^3
same,Body weight of mice,"[1]; 8 mg/kg iv x7 qd, 24 d (end)",22.2 g and 22.2 ± 0.8 g
same,Tumor weight,[1]; 8 mg/kg/d iv x7 qd,0.942 ± 0.14 g
same,tumor inhibition rate %,[1]; 8 mg/kg/d iv x7 qd,33.19%
same,Mice with palpable tumor / total mice,[1]; [3],2/6
same,Tumor volume (cm^3),[1]; [3],0.01 cm^3
same,Body weight of mice,"[1]; 20 mg/kg iv x7 qd, 7 d",18.3 ± 0.8 g
same,Body weight of mice,"[1]; 20 mg/kg iv x7 qd, 14 d",19.8 ± 0.8 g
same,Tumor volume (cm^3),"[1]; 20 mg/kg iv x7 qd, 14 d",0.03 ± 0.02 cm^3
same,Body weight of mice,"[1]; 20 mg/kg iv x7 qd, 21 d",20.5 ± 1 g
same,Tumor volume (cm^3),"[1]; 20 mg/kg iv x7 qd, 21 d",0.206 ± 0.03 cm^3
same,Tumor volume (cm^3),"[1]; 20 mg/kg iv x7 qd, 24 d",0.402 ± 0.1 cm^3
same,Body weight of mice,"[1]; 20 mg/kg iv x7 qd, 24 d (end)",22.0 g and 22.0 ± 1.4 g
same,Tumor weight,[1]; 20 mg/kg/d iv x7 qd,0.752 ± 0.12 g
same,tumor inhibition rate %,[1]; 20 mg/kg/d iv x7 qd,46.67%
same,Body weight of mice,"[1]; 50 mg/kg iv x7 qd, 0 d (beginning)",17.2 g and 17.2 ± 0.8 g
same,Mice with palpable tumor / total mice,[1]; [4],1/6
same,Tumor volume (cm^3),[1]; [4],0.01 cm^3
same,Body weight of mice,"[1]; 50 mg/kg iv x7 qd, 7 d",16.7 ± 0.8 g
same,Body weight of mice,"[1]; 50 mg/kg iv x7 qd, 14 d",17.8 ± 1.5 g
same,Mice with palpable tumor / total mice,"[1]; 50 mg/kg iv x7 qd, 14 d",6/6
same,Tumor volume (cm^3),"[1]; 50 mg/kg iv x7 qd, 14 d",0.01 cm^3
same,Body weight of mice,"[1]; 50 mg/kg iv x7 qd, 21 d",19.3 ± 1 g
same,Tumor volume (cm^3),"[1]; 50 mg/kg iv x7 qd, 21 d",0.148 ± 0.02 cm^3
same,Tumor volume (cm^3),"[1]; 50 mg/kg iv x7 qd, 24 d",0.316 ± 0.06 cm^3
same,Body weight of mice,"[1]; 50 mg/kg iv x7 qd, 24 d (end)",21.3 g and 21.3 ± 1.2 g
same,Tumor weight,[1]; 50 mg/kg/d iv x7 qd,0.657 ± 0.13 g
same,tumor inhibition rate %,[1]; 50 mg/kg/d iv x7 qd,53.40%
same,% time spent in attenuation phase,[2]; ACEA100108 .2uM,69%
same,% time spent in growth phase,[2]; ACEA100108 .2uM,30%
same,% time spent in shortening phase,[2]; ACEA100108 .2uM,1%
same,Dynamicity,[2]; ACEA100108 .2uM,0.83 um/min
same,Frequency of transitions ± SD: Catastrophes,[2]; ACEA100108 .2uM,0.09 ± 0.03 events/min
same,Frequency of transitions ± SD: Rescues,[2]; ACEA100108 .2uM,9.4 ± 3.0 events/min
same,Frequency of transitions ± SD: Total,[2]; ACEA100108 .2uM,0.32 ± 0.06 events/min
same,Growth Rate ± SEM,[2]; ACEA100108 .2uM,1.59 ± 0.1 um/min
same,Mean duration of attenuation ± SEM,[2]; ACEA100108 .2uM,3.74 ± 0.7
same,Shortening Rate ± SEM,[2]; ACEA100108 .2uM,35.8 ± 4.3 um/min
same,Duration of Event,"[2]; growth events, ACEA100108 .2uM",2.04 ± 0.3 min
same,Length of Excursion,"[2]; growth events, ACEA100108 .2uM",3.24 ± 0.3 um
same,Effect on duration of growth events,"[2]; plus ends, steady state",increased the duration of growth events
same,Effect on length of growth events,"[2]; plus ends, steady state",increased the duration of growth events and the average length of growth events
same,Effect on length of shortening events,"[2]; plus ends, steady state",strong effect upon the length of shortening events
same,Duration of Event,[2]; [5],0.11 ± 0.02 min
same,Length of Excursion,[2]; [5],3.79 ± 0.3 um
